Assays:
Assay in all cases: Kinase screen
Format in all cases: biochemical
AMPK (hum) = AMPK (hum) (Homo sapiens, UniProt Q13131)
Excerpt: (§1) With verapamil used as a positive control.
(§2) V. Distribution coefficient (LogD7.4)

BRK = BRK (Homo sapiens, UniProt Q13882)
Excerpt: as §1, §2

CAMK1 = CAMK1 (Homo sapiens, UniProt Q14012)
Excerpt: as §1, §2

CDK9-Cyclin T1 = CDK9-Cyclin T1 (Homo sapiens, UniProt P50750)
Excerpt: as §1, §2

DAPK1 = DAPK1 (Homo sapiens, UniProt P53355)
Excerpt: as §1, §2

EPH-B1 = EPH-B1 (Homo sapiens, UniProt P54762)
Excerpt: as §1, §2

EPH-B2 = EPH-B2 (Homo sapiens, UniProt P29323)
Excerpt: as §1, §2

ERK5 = ERK5 (Homo sapiens, UniProt Q13164)
Excerpt: as §1, §2

ERK8 = ERK8 (Homo sapiens, UniProt Q8TD08)
Excerpt: as §1, §2

FGF-R1 = FGF-R1 (Homo sapiens, UniProt P11362)
Excerpt: as §1, §2

IRR = IRR (Homo sapiens, UniProt P14616)
Excerpt: as §1, §2

JNK1 = JNK1 (Homo sapiens, UniProt P45983)
Excerpt: as §1, §2

JNK2 = JNK2 (Homo sapiens, UniProt P45984)
Excerpt: as §1, §2

MAP4K5 = MAP4K5 (Homo sapiens, UniProt Q9Y4K4)
Excerpt: as §1, §2

MAPKAP-K3 = MAPKAP-K3 (Homo sapiens, UniProt Q16644)
Excerpt: as §1, §2

MARK1 = MARK1 (Homo sapiens, UniProt Q9P0L2)
Excerpt: as §1, §2

MARK2 = MARK2 (Homo sapiens, UniProt Q7KZI7)
Excerpt: as §1, §2

MARK3 = MARK3 (Homo sapiens, UniProt P27448)
Excerpt: as §1, §2

MELK = MELK (Homo sapiens, UniProt Q14680)
Excerpt: as §1, §2

MLK1 = MLK1 (Homo sapiens, UniProt P80192)
Excerpt: as §1, §2

MLK3 = MLK3 (Homo sapiens, UniProt Q16584)
Excerpt: as §1, §2

MNK1 = MNK1 (Homo sapiens, UniProt Q9BUB5)
Excerpt: as §1, §2

MSK1 = MSK1 (Homo sapiens, UniProt O75582)
Excerpt: as §1, §2

NEK2a = NEK2a (Homo sapiens, UniProt P51955)
Excerpt: as §1, §2

PAK2 = PAK2 (Homo sapiens, UniProt Q13177)
Excerpt: as §1, §2

PHK = PHK (Homo sapiens, UniProt Q16816)
Excerpt: as §1, §2

PKBb = PKBb (Homo sapiens, UniProt P31751)
Excerpt: as §1, §2

PKCa = PKCa (Homo sapiens, UniProt P17252)
Excerpt: as §1, §2

PKCz = PKCz (Homo sapiens, UniProt Q05513)
Excerpt: as §1, §2

PKD1 = PKD1 (Homo sapiens, UniProt Q15139)
Excerpt: as §1, §2

PRK2 = PRK2 (Homo sapiens, UniProt Q16513)
Excerpt: as §1, §2

RIPK2 = RIPK2 (Homo sapiens, UniProt O43353)
Excerpt: as §1, §2

SIK2 = SIK2 (Homo sapiens, UniProt Q9H0K1)
Excerpt: as §1, §2

SRPK1 = SRPK1 (Homo sapiens, UniProt Q96SB4)
Excerpt: as §1, §2

SYK = SYK (Homo sapiens, UniProt P43405)
Excerpt: as §1, §2

SmMLCK = SmMLCK (Homo sapiens, UniProt Q15746)
Excerpt: as §1, §2

Src = Src (Homo sapiens, UniProt P12931)
Excerpt: as §1, §2

TAK1 = TAK1 (Homo sapiens, UniProt O43318)
Excerpt: as §1, §2

TESK1 = TESK1 (Homo sapiens, UniProt Q15569)
Excerpt: as §1, §2

TTBK1 = TTBK1 (Homo sapiens, UniProt Q5TCY1)
Excerpt: as §1, §2

ULK1 = ULK1 (Homo sapiens, UniProt O75385)
Excerpt: as §1, §2

VEG-FR = VEG-FR (Homo sapiens, UniProt P17948)
Excerpt: as §1, §2

YES1 = YES1 (Homo sapiens, UniProt P07947)
Excerpt: as §1, §2

ZAP70 = ZAP70 (Homo sapiens, UniProt P43403)
Excerpt: as §1, §2

p38a MAPK = p38a MAPK (Homo sapiens, UniProt Q16539)
Excerpt: as §1, §2

p38d MAPK = p38d MAPK (Homo sapiens, UniProt O15264)
Excerpt: as §1, §2

YES1, sequence (P07947 whole entry): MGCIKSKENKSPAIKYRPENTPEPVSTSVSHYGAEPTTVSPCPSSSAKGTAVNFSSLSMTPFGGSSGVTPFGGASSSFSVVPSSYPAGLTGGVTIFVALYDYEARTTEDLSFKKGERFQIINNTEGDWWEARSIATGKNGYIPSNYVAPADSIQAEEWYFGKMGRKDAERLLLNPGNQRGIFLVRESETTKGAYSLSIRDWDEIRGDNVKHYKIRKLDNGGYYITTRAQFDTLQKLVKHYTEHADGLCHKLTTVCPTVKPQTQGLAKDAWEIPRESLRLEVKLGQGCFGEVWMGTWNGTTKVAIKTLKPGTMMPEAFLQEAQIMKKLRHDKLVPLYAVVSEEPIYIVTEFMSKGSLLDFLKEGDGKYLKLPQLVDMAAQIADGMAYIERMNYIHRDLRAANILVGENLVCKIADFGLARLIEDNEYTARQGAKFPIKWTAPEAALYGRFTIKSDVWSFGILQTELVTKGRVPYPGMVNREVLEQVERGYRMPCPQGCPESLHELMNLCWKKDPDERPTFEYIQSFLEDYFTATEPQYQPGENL
PAK2, sequence (Q13177 whole entry): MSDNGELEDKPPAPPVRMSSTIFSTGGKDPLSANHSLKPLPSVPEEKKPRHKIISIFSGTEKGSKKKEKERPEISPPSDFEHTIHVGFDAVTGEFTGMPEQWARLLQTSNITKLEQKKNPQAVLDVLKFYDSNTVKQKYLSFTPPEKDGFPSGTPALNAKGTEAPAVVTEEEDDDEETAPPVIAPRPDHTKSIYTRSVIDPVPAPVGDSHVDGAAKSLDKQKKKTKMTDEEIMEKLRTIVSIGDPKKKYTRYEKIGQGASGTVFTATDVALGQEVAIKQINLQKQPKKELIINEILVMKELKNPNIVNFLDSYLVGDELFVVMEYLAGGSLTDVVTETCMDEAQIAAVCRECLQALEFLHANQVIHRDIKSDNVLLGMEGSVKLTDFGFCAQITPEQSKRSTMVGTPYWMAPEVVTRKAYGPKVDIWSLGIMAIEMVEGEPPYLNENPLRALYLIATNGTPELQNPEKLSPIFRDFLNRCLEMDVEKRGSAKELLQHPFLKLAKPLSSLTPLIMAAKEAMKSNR
NEK2a, sequence (P51955 whole entry): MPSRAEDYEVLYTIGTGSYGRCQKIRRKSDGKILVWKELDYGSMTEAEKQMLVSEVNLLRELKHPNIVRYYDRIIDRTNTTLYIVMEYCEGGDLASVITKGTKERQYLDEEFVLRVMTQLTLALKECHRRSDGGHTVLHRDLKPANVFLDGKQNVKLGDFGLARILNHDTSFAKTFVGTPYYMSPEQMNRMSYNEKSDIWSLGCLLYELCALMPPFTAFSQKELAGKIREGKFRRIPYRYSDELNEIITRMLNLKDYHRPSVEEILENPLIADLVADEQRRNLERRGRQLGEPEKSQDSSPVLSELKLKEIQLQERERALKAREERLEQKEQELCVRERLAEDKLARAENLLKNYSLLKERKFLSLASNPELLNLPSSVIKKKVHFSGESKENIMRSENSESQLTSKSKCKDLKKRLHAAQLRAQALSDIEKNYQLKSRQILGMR
RIPK2, sequence (O43353 whole entry): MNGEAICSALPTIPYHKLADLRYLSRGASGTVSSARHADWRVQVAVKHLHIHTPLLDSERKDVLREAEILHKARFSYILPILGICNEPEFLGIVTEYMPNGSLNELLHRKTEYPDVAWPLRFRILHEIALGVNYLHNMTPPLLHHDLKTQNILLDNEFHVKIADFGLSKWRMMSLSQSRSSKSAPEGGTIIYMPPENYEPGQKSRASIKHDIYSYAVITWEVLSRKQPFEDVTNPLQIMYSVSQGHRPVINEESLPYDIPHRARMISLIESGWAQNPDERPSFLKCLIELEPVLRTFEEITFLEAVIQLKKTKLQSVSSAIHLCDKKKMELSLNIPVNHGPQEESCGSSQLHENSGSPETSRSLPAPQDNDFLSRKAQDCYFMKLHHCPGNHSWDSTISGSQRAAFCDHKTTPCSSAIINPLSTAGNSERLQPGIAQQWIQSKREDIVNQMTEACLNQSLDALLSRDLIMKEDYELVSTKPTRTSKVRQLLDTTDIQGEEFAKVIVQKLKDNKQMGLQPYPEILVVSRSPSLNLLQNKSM
MAPKAP-K3, sequence (Q16644 whole entry): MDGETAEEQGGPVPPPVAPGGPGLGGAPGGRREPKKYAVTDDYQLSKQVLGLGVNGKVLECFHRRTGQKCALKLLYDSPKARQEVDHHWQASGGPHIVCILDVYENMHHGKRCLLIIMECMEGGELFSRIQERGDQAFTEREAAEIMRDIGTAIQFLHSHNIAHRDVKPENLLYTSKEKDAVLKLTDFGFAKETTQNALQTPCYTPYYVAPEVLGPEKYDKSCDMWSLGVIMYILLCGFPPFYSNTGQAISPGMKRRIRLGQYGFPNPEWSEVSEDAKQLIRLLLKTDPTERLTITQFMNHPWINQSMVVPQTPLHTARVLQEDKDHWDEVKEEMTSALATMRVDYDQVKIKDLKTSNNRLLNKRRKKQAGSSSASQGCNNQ
ERK5, sequence (Q13164 whole entry): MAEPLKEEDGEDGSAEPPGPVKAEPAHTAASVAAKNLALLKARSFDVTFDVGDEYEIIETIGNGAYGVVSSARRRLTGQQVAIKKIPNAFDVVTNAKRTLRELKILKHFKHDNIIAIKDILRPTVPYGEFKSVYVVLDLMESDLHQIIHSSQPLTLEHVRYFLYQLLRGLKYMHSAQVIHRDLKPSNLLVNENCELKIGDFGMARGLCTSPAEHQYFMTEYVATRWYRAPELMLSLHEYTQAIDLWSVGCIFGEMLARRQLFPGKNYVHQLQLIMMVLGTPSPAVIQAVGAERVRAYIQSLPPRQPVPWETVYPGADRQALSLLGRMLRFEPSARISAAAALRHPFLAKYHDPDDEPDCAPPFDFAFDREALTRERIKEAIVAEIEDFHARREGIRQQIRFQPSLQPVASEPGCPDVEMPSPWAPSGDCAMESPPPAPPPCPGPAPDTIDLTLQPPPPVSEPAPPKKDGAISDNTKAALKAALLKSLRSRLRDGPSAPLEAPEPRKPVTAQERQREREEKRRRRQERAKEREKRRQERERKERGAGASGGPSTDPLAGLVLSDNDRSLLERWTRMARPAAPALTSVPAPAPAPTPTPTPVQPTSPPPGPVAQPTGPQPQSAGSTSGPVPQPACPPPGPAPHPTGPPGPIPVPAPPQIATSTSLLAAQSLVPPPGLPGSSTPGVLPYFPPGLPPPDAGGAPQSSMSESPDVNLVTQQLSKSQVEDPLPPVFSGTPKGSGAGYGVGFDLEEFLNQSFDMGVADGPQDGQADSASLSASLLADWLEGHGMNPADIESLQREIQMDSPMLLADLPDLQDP
MNK1, sequence (Q9BUB5 whole entry): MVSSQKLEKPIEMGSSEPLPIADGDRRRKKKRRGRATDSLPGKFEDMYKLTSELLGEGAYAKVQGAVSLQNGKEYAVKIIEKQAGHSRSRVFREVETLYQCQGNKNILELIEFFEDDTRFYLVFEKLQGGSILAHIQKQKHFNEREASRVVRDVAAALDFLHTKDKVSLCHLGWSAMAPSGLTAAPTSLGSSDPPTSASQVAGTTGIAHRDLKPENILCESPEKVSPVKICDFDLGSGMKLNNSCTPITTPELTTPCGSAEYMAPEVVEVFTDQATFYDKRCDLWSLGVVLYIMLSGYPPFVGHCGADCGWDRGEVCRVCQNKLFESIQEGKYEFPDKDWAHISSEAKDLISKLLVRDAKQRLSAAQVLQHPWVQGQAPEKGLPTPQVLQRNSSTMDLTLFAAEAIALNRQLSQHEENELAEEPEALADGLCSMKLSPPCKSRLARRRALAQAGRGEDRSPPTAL
JNK1, sequence (P45983 whole entry): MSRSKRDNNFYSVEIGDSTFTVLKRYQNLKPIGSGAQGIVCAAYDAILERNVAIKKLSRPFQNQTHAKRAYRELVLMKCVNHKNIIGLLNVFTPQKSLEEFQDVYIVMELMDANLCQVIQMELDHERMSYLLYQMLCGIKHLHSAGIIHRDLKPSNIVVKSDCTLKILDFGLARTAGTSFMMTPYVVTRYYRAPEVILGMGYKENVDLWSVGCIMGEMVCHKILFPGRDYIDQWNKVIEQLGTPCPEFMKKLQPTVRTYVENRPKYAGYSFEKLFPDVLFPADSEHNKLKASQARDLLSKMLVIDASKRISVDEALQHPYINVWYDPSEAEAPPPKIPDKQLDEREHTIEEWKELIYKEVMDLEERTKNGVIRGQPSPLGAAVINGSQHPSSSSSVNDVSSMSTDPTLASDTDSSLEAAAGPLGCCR
PHK, sequence (Q16816 whole entry): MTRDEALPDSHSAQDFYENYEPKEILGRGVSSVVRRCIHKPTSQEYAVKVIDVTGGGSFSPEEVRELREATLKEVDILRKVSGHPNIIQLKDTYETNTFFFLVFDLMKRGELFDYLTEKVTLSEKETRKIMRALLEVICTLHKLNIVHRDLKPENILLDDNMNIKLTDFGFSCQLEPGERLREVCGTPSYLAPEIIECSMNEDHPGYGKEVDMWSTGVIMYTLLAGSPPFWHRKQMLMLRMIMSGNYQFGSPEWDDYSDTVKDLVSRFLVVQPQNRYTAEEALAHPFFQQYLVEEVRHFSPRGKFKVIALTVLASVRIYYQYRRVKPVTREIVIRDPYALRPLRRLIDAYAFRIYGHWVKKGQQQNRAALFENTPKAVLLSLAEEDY
p38d MAPK, sequence (O15264 whole entry): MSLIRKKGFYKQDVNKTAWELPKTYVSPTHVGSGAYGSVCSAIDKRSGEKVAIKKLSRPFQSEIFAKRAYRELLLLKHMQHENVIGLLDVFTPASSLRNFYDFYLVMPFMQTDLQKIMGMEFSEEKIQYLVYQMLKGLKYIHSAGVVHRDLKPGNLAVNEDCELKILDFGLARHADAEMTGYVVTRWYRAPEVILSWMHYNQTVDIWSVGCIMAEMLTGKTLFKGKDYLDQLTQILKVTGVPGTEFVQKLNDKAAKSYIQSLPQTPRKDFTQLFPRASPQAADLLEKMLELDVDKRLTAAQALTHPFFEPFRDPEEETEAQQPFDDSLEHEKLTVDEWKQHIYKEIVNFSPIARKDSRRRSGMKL

CCN(CC)Cc1ccc(OC)c(-c2cc3c(-c4ccc(C(=O)O)c(C(C)C)c4)ccnc3[nH]2)c1 [analogue 1, 4-(2-(5-((Diethylamino)methyl)-2-methoxyphenyl)-1H-pyrrolo[2,3-b]pyridin-4-yl)-2-isopropylbenzoic Acid]
activity at 1 µM (AMPK (hum)): 30%
activity at 1 µM (BRK): 33%
activity at 1 µM (CAMK1): 86%
activity at 1 µM (CDK9-Cyclin T1): 2%
activity at 1 µM (DAPK1): 105%
activity at 1 µM (EPH-B1): 124%
activity at 1 µM (EPH-B2): 100%
activity at 1 µM (ERK5): 54%
activity at 1 µM (ERK8): 55%
activity at 1 µM (FGF-R1): 50%
activity at 1 µM (IRR): 101%
activity at 1 µM (JNK1): 85%
activity at 1 µM (JNK2): 62%
activity at 1 µM (MAP4K5): 14%
activity at 1 µM (MAPKAP-K3): 110%
activity at 1 µM (MARK1): 52%
activity at 1 µM (MARK2): 34%
activity at 1 µM (MARK3): 34%
activity at 1 µM (MELK): 85%
activity at 1 µM (MLK1): 111%
activity at 1 µM (MLK3): 107%
activity at 1 µM (MNK1): 0%
activity at 1 µM (MSK1): 99%
activity at 1 µM (NEK2a): 87%
activity at 1 µM (PAK2): 84%
activity at 1 µM (PHK): 10%
activity at 1 µM (PKBb): 96%
activity at 1 µM (PKCa): 64%
activity at 1 µM (PKCz): 121%
activity at 1 µM (PKD1): 85%
activity at 1 µM (PRK2): 48%
activity at 1 µM (RIPK2): 16%
activity at 1 µM (SIK2): 41%
activity at 1 µM (SRPK1): 92%
activity at 1 µM (SYK): 89%
activity at 1 µM (SmMLCK): 80%
activity at 1 µM (Src): 42%
activity at 1 µM (TAK1): 25%
activity at 1 µM (TESK1): 78%
activity at 1 µM (TTBK1): 102%
activity at 1 µM (ULK1): 80%
activity at 1 µM (VEG-FR): 80%
activity at 1 µM (YES1): 67%
activity at 1 µM (ZAP70): 59%
activity at 1 µM (p38a MAPK): 89%
activity at 1 µM (p38d MAPK): 117%
